Reference: publication PMC5620277, “The histone methyltransferase EZH2 as a druggable target in SHH medulloblastoma cancer stem cells” (Oncotarget, 2017)

Columns and labels:
[1] = biological target: DOT1L (Homo sapiens, UniProt Q8TEK3); assay: Methyltransferase panel: DOT1L; assay type: biochemical; conditions: substrate nucleosomes
Experimental: MC3629 was tested in the cell free enzymatic assay (EZH2/PRC2) in 10-dose IC50 mode with 2-fold serial dilution starting from 400 μM solution, using various histone substrates (histone H3/H4 octamer, histone H3/H4 tetramer, histone H3, and core histone) and SAM as the co-substrate. […] (Figure 2B, and Supplementary Figure 2).
The appropriate methyltransferase (MT) substrate (0.05 mg/ml core histone for EZH1 complex, 0.05 mg/ml oligonucleosomes for DOT1L, 5 μM histone H3 (1-21) peptide for G9a, 0.05 mg/ml nucleosomes for MLL1 complex, 0.05 mg/ml core histone for SET7/9, 5 μM histone H4 for PRMT1, and 0.001 mg/ml poly(dI-dC) for DNMT1) was added in freshly prepared Reaction Buffer (50 mM Tris-HCl (pH 8.5), 5 mM MgCl2, 50 mM NaCl, 0.01% Brij35, 1 mM DTT, 1% DMSO). The MT enzyme was delivered into the substrate solution and the mixture was mixed gently. Afterwards, the tested compound dissolved in DMSO was delivered into the enzyme/substrate reaction mixture by using Acoustic Technology (Echo 550, LabCyte Inc. Sunnyvale, CA) in nanoliter range, and 1 μM ^3H-SAM was also added into the reaction mixture to initiate the reaction. The reaction mixture was incubated for 1 h at 30°C and then it was delivered to filter-paper for detection. The data were analyzed using Excel and GraphPad Prism software for IC50 curve fits (for EZH1 complex).

[2] = test system: hMB-SLCs; assay: Western Blot of H3K27me3, PCNA, cleaved caspase 3 in hMB-SLCs; assay type: cell-based, human; conditions: 5 μM, 48 h
Experimental: (§1) To evaluate cell viability cells were plated at a density of 5×10^3 cells/well in 96-well plates and were incubated with MTS solution (CellTiter 96® AQueous One Solution Promega).
(§2) Western blots were performed according to standard procedures. Briefly, protein lysates were prepared using RIPA buffer with fresh protease inhibitors. Lysates were separated on SDS polyacrylamide gels. Proteins were transferred on nitrocellulose membrane (0.45 micron) (PerkinElmer). Membranes were blocked for 1 h at room temperature in 5% nonfat dry milk and incubated overnight at 4°C with antibodies against EZH2 (4905S Cell signaling), H3K27me3 (07-449 Millipore), PCNA (2586 Cell signaling), ACTIN (I-19 sc-1616; Santa Cruz Biotechnology), GAPDH (ab9484, Abcam), cleaved CSP-3 (D-175 9661S; Cell Signaling) and H3 (ab1971, Abcam). HRP-conjugated secondary antibodies (Santa Cruz Biotechnology) were used in combination with enhanced chemiluminescence (ECL Amersham).

[3] = test system: hMB-SLCs; assay: Self-renewal, clonogenic assay, hMB-SLCs; assay type: cell-based, human; conditions: 5 μM
Experimental: (§3) For self-renewal assessment, clonogenic assay was performed as previously described. Briefly: oncospheres were disaggregated with non-enzymatic cell dissociation buffer (Sigma) and cells were plated at clonal density (1-2 cells/mm^2) into 96-well plates and cultured for an appropriate number of days (7-15) until oncospheres were countable.

[4] = test system: DAOY-SLCs; assay: Western Blot of H3K27me3 and PCNA in DAOY-SLCs; assay type: cell-based; conditions: 5 μM, 48 h
Experimental: as §1, §2

[5] = test system: H3K27me3 in cerebellum and brain; assay: H3K27me3 levels in cerebellum and brain of wild type mice after i.p. treatment; assay type: in vivo, mouse
Experimental: CD1 wild-type mice were treated intra-peritoneally with 20 μMoles/Kg of MC3629 (n=8 for each group). Treatment was performed at the age of 8 and 10 days post natal and mice were sacrificed at 12 days post natal. Brain and cerebellum tissues were collected for analysis.

[6] = test system: DAOY-SLCs orthotopic tumors (XT-MB); assay: Xenograft DAOY-SLCs orthotopic tumors (XT-MB) in nude mice; assay type: in vivo, mouse; conditions: 20 μMoles/Kg i.p. twice a week for 3 weeks
Experimental: Next, we generated xenograft DAOY-SLCs orthotopic tumors (XT-MB) in nude mice that grew as tumor masses with the characteristics of MBs.
DAOY-SLCs were stereotaxically implanted into the cerebellum of nude mice by using the following coordinates according to the atlas of Franklin and Paxinos: 6.6 mm posterior to the bregma; 1 mm lateral to the midline; and 2 mm ventral from the surface of skull of mice, under ketamine (100 mg/kg, i.p.)/xylazine (10 mg/kg, i.p.) anesthesia. Cells (2×10^5 per 3 μl) were implanted at an infusion rate of 1 μl/min. Mice were separated into two groups. Group 1 (n=8) was intraperitoneally treated with MC3629 (20 μMoles/Kg) suspended in 10% (2-Hydroxypropyl)-β-cyclodextrin +1%DMSO (Sigma), Group 2 (n=8) was treated with 10% (2-Hydroxypropyl)-β-cyclodextrin +1%DMSO (Sigma). After 21 days of treatment, animals were sacrificed and brains were formalin fixed and paraffin embedded. Brain tumor volume calculation: Serial thick coronal sections (2 μm) starting from mesencephalon to the end of cerebellum were performed. The analysis was performed on 20 sections, sampled every 40 μm on the horizontal plan of the cerebellum, in which the tumor was identified and outlined at 2.5X magnification.
Every 40 μm of brain slice, hematoxylin and eosin (H&E) staining was performed. Tumor area of every slice was evaluated with a microscope (Axio Imager M1 microscope) equipped with a motorized stage and software Image Pro Plus 6.2. The following formula was used to calculate brain tumor volume: tumor volume = sum of (measured area for each slice x slice thickness x sampling frequency).
Paraffin-embedded sections were deparaffinized, and stained with either H&E or immunohistochemical stains as specified. Heat-induced epitope retrieval was performed with citrate buffer pH 6. Sections were incubated with ki67 primary antibody (Thermo Scientific) for 1 h. Ki67 expression was expressed as percentages of total cells with labeled nuclei.

[7] = test system: mMB-SLCs; assay: Self-renewal, clonogenic assay, mMB-SLCs; assay type: cell-based, mouse; conditions: 5 μM
Experimental: as §3

DOT1L, sequence (Q8TEK3 whole entry, species assumed): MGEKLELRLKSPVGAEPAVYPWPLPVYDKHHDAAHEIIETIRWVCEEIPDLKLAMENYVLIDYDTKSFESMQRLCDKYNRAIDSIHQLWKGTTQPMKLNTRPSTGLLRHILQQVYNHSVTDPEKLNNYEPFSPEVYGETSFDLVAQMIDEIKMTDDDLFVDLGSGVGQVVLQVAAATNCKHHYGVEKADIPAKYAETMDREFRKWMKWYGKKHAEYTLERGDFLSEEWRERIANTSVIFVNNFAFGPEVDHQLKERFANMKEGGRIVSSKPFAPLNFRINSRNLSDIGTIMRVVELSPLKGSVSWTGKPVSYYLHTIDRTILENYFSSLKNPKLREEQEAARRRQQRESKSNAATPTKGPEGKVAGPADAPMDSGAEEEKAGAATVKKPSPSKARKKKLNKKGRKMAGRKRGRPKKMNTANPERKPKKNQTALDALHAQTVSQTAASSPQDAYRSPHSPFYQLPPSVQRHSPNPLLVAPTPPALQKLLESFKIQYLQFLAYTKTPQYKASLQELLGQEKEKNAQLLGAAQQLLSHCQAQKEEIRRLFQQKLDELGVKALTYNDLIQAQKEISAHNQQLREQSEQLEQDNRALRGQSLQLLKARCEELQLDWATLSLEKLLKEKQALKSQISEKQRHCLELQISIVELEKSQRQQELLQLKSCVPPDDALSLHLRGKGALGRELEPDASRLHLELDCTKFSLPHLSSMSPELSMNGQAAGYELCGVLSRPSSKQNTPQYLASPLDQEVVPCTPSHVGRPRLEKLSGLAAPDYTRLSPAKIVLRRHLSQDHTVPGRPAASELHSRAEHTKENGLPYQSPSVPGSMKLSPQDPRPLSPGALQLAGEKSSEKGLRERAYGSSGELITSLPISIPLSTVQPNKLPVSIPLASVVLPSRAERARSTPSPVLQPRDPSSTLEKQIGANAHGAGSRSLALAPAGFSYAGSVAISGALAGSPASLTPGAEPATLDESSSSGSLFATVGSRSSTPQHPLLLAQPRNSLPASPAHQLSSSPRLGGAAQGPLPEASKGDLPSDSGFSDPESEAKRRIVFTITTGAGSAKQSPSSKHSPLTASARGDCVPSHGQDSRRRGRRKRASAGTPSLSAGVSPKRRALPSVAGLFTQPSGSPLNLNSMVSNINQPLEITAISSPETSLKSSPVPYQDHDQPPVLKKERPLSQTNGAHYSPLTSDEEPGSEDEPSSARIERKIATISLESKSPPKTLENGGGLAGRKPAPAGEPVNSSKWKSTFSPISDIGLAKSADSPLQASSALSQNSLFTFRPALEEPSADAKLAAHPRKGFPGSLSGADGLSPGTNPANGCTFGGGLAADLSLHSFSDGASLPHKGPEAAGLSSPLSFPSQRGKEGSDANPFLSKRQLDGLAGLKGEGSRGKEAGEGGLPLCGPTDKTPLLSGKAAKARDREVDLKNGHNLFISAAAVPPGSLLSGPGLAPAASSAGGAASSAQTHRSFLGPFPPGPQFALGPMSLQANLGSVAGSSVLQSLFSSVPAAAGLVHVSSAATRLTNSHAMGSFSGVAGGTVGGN

In the case of Cc1cc(C)c(CNC(=O)c2cnn(-c3ccccc3)c2C)c(=O)[nH]1 [MC3629, N-((4,6-dimethyl-2-oxo-1,2-dihydropyridin-3-yl)methyl)-5-methyl-1-phenyl-1H-pyrazole-4-carboxamide], the inhibition at 200 µM [1] is reported as 3%, the “H3K27me3 and PCNA protein levels” value [2] is reported as “significantly impaired” and the “apoptosis, level of cleaved caspase 3” value [2] is reported as “induced apoptosis”. For the same molecule, the self-renewal [3] was “significantly reduced”, the “H3K27me3 and PCNA levels” value [4] was “down modulated” and the “H3K27me3 levels in brain” value ([5]; 20 μMol/Kg intra-peritoneal) was “reduced levels”. For the same molecule, the “H3K27me3 levels in cerebellum” value ([5]; 20 μMol/Kg intra-peritoneal, twice/week) was “significant reduction”, the “ability to cross the BBB in vivo” value ([5]; inferred from reduced H3K27me3 in cerebellum and brain, 20 μMol/Kg i.p.) was “crosses the BBB” and the “H3K27me3 in tumor xenografts” value ([6]; Western Blot) was “reduction”. The “NANOG protein in tumors” value ([6]; Western Blot) was “significantly lower levels”, the “apoptosis, level of cleaved caspase 3 in XT-MB” value ([6]; Western Blot) was “induction of apoptosis” and the “proliferating Ki67-positive cells in tumors” value ([6]; immunostaining) was “significant reduction”. The “XT-MB growth (xenograft volume)” value ([6]; nude mice) was “significantly impaired” and the self-renewal [7] was “significantly reduced”.
